Laboratory results: US9302999B2, “Substituted triazoles as herbicides” (E. I. DU PONT DE NEMOURS AND COMPANY, priority 2012, dated 2016)

Experiments:
Oilseed Rape = experiment: Test C preemergence: oilseed rape; type: in vivo; settings: scale of 0 to 100, 0 is no effect, 100 is complete control
[1] = test system: lambsquarters (Chenopodium album); experiment: Test F pre-/postemergence: lambsquarters; type: in vivo; settings: Preemergence
Text: (§1) Seeds of plant species selected from corn (Zea mays), soybean (Glycine max), velvetleaf (Abutilon theophrasti), lambsquarters (Chenopodium album), poinsettia, wild (wild poinsettia, Euphorbia heterophylla), pigweed, palmer (palmer pigweed, Amaranthus palmeri), waterhemp (common waterhemp, Amaranthus rudis), surinam grass (Brachiaria decumbens), crabgrass, Brazil (Brazilian crabgrass, Digitaria horizontalis), panicum, fall (fall panicum Panicum dichotomiflorum), crabgrass, large (large crabgrass, Digitaria sanguinalis), foxtail, giant (giant foxtail, Setaria faberii), foxtail, green (green foxtail Setaria viridis), goosegrass (Eleusine indica), ragweed (common ragweed, Ambrosia elatior), barnyardgrass (Echinochloa crus-galli), sandbur (southern sandbur, Cenchrus echinatus), arrowleaf sida (Sida rhombifolia), ryegrass, Italian (Italian ryegrass, Lolium multiflorum), dayflower, VA (Virginia (VA) dayflower, Commelina virginica), field bindweed (Convolvulus arvensis), cocklebur (common cocklebur, Xanthium strumarium), morningglory (Ipomoea coccinea), nightshade (eastern black nightshade, Solanum ptycanthum), kochia (Kochia scoparia), nutsedge, yellow (yellow nutsedge, Cyperus esculentus), johnsongrass (Sorghum halepense), smartweed (ladysthumb smartweed, Polygonum persicaria), and beggarticks (hairy beggarticks, Bidens pilosa), were planted into a silt loam soil and treated preemergence with test chemicals formulated in a non-phytotoxic solvent mixture which included a surfactant. At the same time, plants selected from these crop and weed species and also pigweed (Amaranthus retroflexus), waterhemp_RES1 (ALS/Triazine resistant common waterhemp, Amaranthus rudis) and waterhemp_RES2 (ALS/HPPD resistant common waterhemp, Amaranthus rudis) were planted in pots containing a planting medium comprising spaghnum peat moss, vermiculite, wetting agent and starter nutrients treated with postemergence applications of some of the test chemicals formulated in the same manner. Plants ranged in height from 2 to 18 cm for postemergence treatments (1- to 4-leaf stage).
(§2) Treated plants and controls were maintained in a greenhouse for 14 to 21 days, after which time all species were compared to controls and visually evaluated. Plant response ratings, summarized in Table E, are based on a scale of 0 to 100 where 0 is no effect and 100 is complete control. A dash (-) response means no test result.

soybean (Glycine max) = experiment: Test F pre-/postemergence: soybean; type: in vivo
Text: as §1, §2

Waterhemp = experiment: Test C preemergence: waterhemp; type: in vivo, Amaranthus rudis; settings: 125 g ai/ha, scale 0 to 100, 0 no effect, 100 complete control
[2] = test system: beggarticks (hairy beggarticks, Bidens pilosa); experiment: Test F pre-/postemergence: beggarticks; type: in vivo
Text: as §1, §2

[3] = Postemergence, 4 g ai/ha, scale 0 to 100
[4] = Postemergence, 8 g ai/ha, scale 0 to 100
[5] = Postemergence, 16 g ai/ha, scale 0 to 100
[6] = Postemergence, 31 g ai/ha, scale 0 to 100
[7] = Postemergence, 62 g ai/ha, scale 0 to 100
[8] = Preemergence, 4 g ai/ha, scale 0 to 100, 0 no effect, 100 complete control
[9] = Preemergence, 8 g ai/ha, scale 0 to 100, 0 no effect, 100 complete control
[10] = Preemergence, 16 g ai/ha, scale 0 to 100 (0 no effect, 100 complete control)
[11] = Preemergence, 31 g ai/ha, scale 0 to 100 (0 no effect, 100 complete control)

Structure (SMILES): Cc1nn(-c2ccc(C(F)(F)F)c(F)c2)nc1Cc1ccnc(C(F)(F)F)c1 [Compound 162]
- Plant response rating, Oilseed Rape (Oilseed Rape; 31 g ai/ha): 80
- Plant response rating, Oilseed Rape (Oilseed Rape; 62 g ai/ha): 100
- Plant response rating, Lambsquarters ([1]; 4 g ai/ha, scale 0 to 100, 0 no effect, 100 complete control): 0
- Plant response rating, Lambsquarters ([1]; 8 g ai/ha, scale 0 to 100, 0 no effect, 100 complete control): 0
- Plant response rating, Lambsquarters ([1]; 16 g ai/ha, scale 0 to 100 (0 no effect, 100 complete control)): 98
- Plant response rating, Lambsquarters ([1]; 31 g ai/ha, scale 0 to 100 (0 no effect, 100 complete control)): 98
- Plant response rating, Lambsquarters ([1]; 62 g ai/ha, scale 0 to 100): 98
- Plant response rating, Soybean (soybean (Glycine max); [3]): 20
- Plant response rating, Soybean (soybean (Glycine max); [4]): 30
- Plant response rating, Soybean (soybean (Glycine max); [5]): 30
- Plant response rating, Soybean (soybean (Glycine max); [6]): 45
- Plant response rating, Soybean (soybean (Glycine max); [7]): 55
- Plant response rating, Soybean (soybean (Glycine max); [8]): 0
- Plant response rating, Soybean (soybean (Glycine max); [9]): 0
- Plant response rating, Soybean (soybean (Glycine max); [10]): 0
- Plant response rating, Soybean (soybean (Glycine max); [11]): 25
- Plant response rating, Waterhemp (Waterhemp): 100
- Plant response rating, Beggarticks [2, 3]: 15
- Plant response rating, Beggarticks [2, 4]: 20
- Plant response rating, Beggarticks [2, 5]: 25
- Plant response rating, Beggarticks [2, 6]: 25
- Plant response rating, Beggarticks [2, 7]: 30
- Plant response rating, Beggarticks [2, 8]: 0
- Plant response rating, Beggarticks [2, 9]: 0
- Plant response rating, Beggarticks [2, 10]: 0
- Plant response rating, Beggarticks [2, 11]: 0
- Plant response rating, Beggarticks ([2]; Preemergence, 62 g ai/ha, scale 0 to 100): 0
